How the values were obtained:
[1] = Viability of HaCaT human keratinocytes (mitochondrial metabolic activity, tetrazolium salts / MTT); conditions: HaCaT cells (immortalized keratinocytes)
Experimental: (§1) We worked with HaCaT cells, an immortalized human keratinocyte cell line, which were cultured in DMEM medium supplemented (1 g/L glucose, 4 mM L-alanyl-glutamine, 10% inactivated fetal bovine serum, 50 IU/penicillin, 50 μg/ml streptomycin) at 37° C. and 5% CO2. Cells were worked between passages 3 to 7.
(§2) They were treated with 2.5 and 5% sialylated GMP, alone or combined with 0.5 and 1% panthenol for 0, 1, 2, 24 and 48 h. To define the percentage of viability of the cells with the different treatments at each of the times tested, cells not treated with either sialidinated GMP or panthenol were used as a control condition.
(§3) Once the time was up, cell viability was determined by measuring mitochondrial metabolic activity by spectrophotometric techniques and using tetrazolium salts.

[2] = test system: IL-1β; experiment: IL-1β/GAPDH mRNA expression in HaCaT keratinocytes with or without DNCB; type: cell-based, human; conditions: without DNCB; FIG. 4
Source text: To verify that the composition of the present invention regulates the expression of genes associated with inflammation, the expression of IL-1β/GAPDH and Cox-2/GAPDH mRNA was quantified. When keratinocytes are exposed to IL-1β, they increase the levels of messenger RNA of other cytokines such as MIP-2, TNF-α, IL-10 and IL-1α. In this sense, the regulation of IL-1β is beneficial during inflammatory processes in the skin. The regulation of COX-2 is beneficial during inflammatory processes and wound regeneration.
Cells were worked between passages 3 to 7.
They were seeded in 6-well plates at a density of […] and incubated for 24 h at close to 20% confluency. After three days, 75% confluences were achieved.

[3] = test system: HaCaT cells
Experimental: as §1, §2, §3

Molecule | cytotoxicity at 1 % [1] [%] | cytotoxicity at 2 h, 0.5 % [1] [%] | expression level of IL-1β mRNA in relation to control cells [2] | cell viability [3]
CC(C)(CO)[C@@H](O)C(=O)NCCCO [panthenol, Panthenol] | 30 | 30 | – | –
glycomacropeptide [GMP] | – | – | decreased | greater than 50%
